Data: patent publication US20250171423A1, “PHARMACEUTICAL COMPOUNDS FOR THE TREATMENT OF COMPLEMENT MEDIATED DISORDERS” (Achillion Pharmaceuticals, Inc., priority 2020, published 2025)
Structures can show the parent of a compound that is named as a salt.

target: T1, Human complement C1s enzyme (Homo sapiens, UniProt P09871); assay: Human C1s Enzyme Assay; type: biochemical; details: human C1s 1.16 nM, 5 min preincubation, substrate Z-L-Lys-SBzl 100 μM, A405; read-out: C1s Protease Activity
T1 construct: purified from human serum, Complement Technology, Inc; purchased Complement Technology, Inc; host or cells: human serum
T1 sequence (P09871 438-688 limits assumed): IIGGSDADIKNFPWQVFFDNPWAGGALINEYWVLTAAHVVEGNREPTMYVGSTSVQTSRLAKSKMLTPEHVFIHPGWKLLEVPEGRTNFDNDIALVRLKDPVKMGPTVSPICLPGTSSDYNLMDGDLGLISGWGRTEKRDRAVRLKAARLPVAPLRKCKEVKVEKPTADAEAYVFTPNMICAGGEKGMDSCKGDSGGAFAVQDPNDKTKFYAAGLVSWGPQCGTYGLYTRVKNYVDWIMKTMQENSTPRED
T1 sequence (P09871 16-437 partner limits assumed): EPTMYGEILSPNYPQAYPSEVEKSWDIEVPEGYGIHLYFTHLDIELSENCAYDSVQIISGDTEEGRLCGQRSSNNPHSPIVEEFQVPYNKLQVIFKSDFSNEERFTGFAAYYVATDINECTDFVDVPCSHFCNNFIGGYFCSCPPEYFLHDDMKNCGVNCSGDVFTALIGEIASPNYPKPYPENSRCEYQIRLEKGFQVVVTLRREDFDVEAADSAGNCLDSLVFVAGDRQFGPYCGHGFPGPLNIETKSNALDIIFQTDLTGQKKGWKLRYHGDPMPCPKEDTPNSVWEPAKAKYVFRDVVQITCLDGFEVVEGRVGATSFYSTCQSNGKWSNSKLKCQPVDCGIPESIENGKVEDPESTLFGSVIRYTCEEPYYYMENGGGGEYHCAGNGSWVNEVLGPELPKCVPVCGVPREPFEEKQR
Description: The assay of Example 3 was used to determine the IC50's of the compounds. Other standard complement assays are also available.
Example 3. Human C1s Enzyme Assay
Human complement C1s enzyme (purified from human serum, Complement Technology, Inc.) at 1.16 nM final concentration was incubated with test compound at various concentrations for 5 min at room temperature in 50 mM Tris, 1 M NaCl, pH 7.5. A synthetic substrate Z-L-Lys-SBzl and DTNB (Ellman's reagent) were added to final concentrations of 100 μM each. Absorbance at 405 nm (A405) was recorded at 30 second intervals for 30 min using a microplate spectrophotometer. IC50 values were calculated by nonlinear regression of complement C1s reaction rates as a function of test compound concentration.

IC50 [µM] | SMILES
> 1 | N=C(N)c1csc([C@H](NC(=O)[C@@H]2CC3(CN2C(=O)CNC(=O)CCCOc2ccccc2)OCCO3)C2CCCC2)c1 [Compound 174, (S)-N-((R)-(4-carbamimidoylthiophen-2-yl)(cyclopentyl)methyl)-7-((4-phenoxybutanoyl)glycyl)-1,4-dioxa-7-azaspiro[4.4]nonane-8-carboxamide]
< 0.1 | C[C@@H](C(=O)NCc1cc(C(=N)N)cs1)N(C)C(=O)CNC(=O)c1ccc(Oc2ccccc2)cc1 [Compound 126, (S)-N-(2-((1-(((4-carbamimidoylthiophen-2-yl)methyl)amino)-1-oxopropan-2-yl)(methyl)amino)-2-oxoethyl)-4-phenoxybenzamide]
< 0.1 | C[C@@H](NC(=O)[C@@H]1C[C@](F)(CF)CN1C(=O)CNC(=O)c1ccc(Oc2ccccc2)cc1)c1cc(C(=N)N)cs1 [Compound 187, (2S,4R)-N-((R)-1-(4-carbamimidoylthiophen-2-yl)ethyl)-4-fluoro-4-(fluoromethyl)-1-((4-phenoxybenzoyl)glycyl)pyrrolidine-2-carboxamide]
< 0.1 | C[C@@H](NC(=O)[C@@H]1C[C@@H](Oc2ccccc2)CN1C(=O)CNC(=O)CCCOc1ccccc1)c1cc(C(=N)N)cs1 [Compound 111, (2S,4R)-N-((R)-1-(4-carbamimidoylthiophen-2-yl)ethyl)-4-phenoxy-1-((4-phenoxy-butanoyl)glycyl)pyrrolidine-2-carboxamide]
< 0.1 | C[C@@]12C[C@@H]1N(C(=O)CNC(=O)c1ccc(Oc3ccccc3)nc1)[C@H](C(=O)NCc1cc(C(=N)N)cs1)C2 [Compound 143, (1S,3S,5S)-N-((4-carbamimidoylthiophen-2-yl)methyl)-5-methyl-2-((6-phenoxynicotinoyl)glycyl)-2-azabicyclo[3.1.0]hexane-3-carboxamide]
< 0.1 | COC[C@@]1(F)C[C@@H](C(=O)N[C@H](C)c2cc(C(=N)N)cs2)N(C(=O)CNC(=O)c2ccc(Oc3ccccc3)cc2)C1 [Compound 196, (2S,4R)-N-((R)-1-(4-carbamimidoylthiophen-2-yl)ethyl)-4-fluoro-4-(methoxymethyl)-1-((4-phenoxybenzoyl)glycyl)pyrrolidine-2-carboxamide]
< 0.1 | C[C@@H](NC(=O)[C@@H]1C[C@](F)(CF)CN1C(=O)CNC(=O)CCCOc1ccc(F)cc1)c1cc(C(=N)N)cs1 [Compound 99, (2S,4R)-N-[(1R)-1-(4-carbamimidoylthiophen-2-yl)ethyl]-4-fluoro-4-(fluoromethyl)-1-{2-[4-(4-fluorophenoxy)butanamido]acetyl}pyrrolidine-2-carboxamide]
> 1 | N=C(N)c1csc([C@H](NC(=O)[C@@H]2C[C@@H](OC(F)F)CN2C(=O)CNC(=O)c2ccc(Oc3ccccc3)cc2)C2CC2)c1 [Compound 183, (2S,4R)-N-((R)-(4-carbamimidoylthiophen-2-yl)(cyclopropyl)methyl)-4-(difluoromethoxy)-1-((4-phenoxybenzoyl)glycyl)pyrrolidine-2-carboxamide]
> 1 | N=C(N)c1csc([C@H](NC(=O)[C@@H]2CC3(CN2C(=O)CNC(=O)CCCOc2ccccc2)OCCO3)c2ccccc2)c1 [Compound 175, (S)-N-((R)-(4-carbamimidoylthiophen-2-yl)(phenyl)methyl)-7-((4-phenoxybutanoyl)glycyl)-1,4-dioxa-7-azaspiro[4.4]nonane-8-carboxamide]
< 0.1 | C[C@@]12C[C@@H]1N(C(=O)CNC(=O)c1ccc(Oc3ccccc3)cc1)[C@H](C(=O)NCc1cc(C(=N)N)c(F)s1)C2 [Compound 239, (1S,3S,5S)-N-((4-carbamimidoyl-5-fluorothiophen-2-yl)methyl)-5-methyl-2-((4-phenoxybenzoyl)glycyl)-2-azabicyclo[3.1.0]hexane-3-carboxamide]
< 0.1 | C[C@@H](NC(=O)[C@@H]1C[C@@H](S(C)(=O)=O)CN1C(=O)CNC(=O)c1ccc(Oc2ccccc2)cc1)c1cc(C(=N)N)cs1 [Compound 192, (2S,4R)-N-((R)-1-(4-carbamimidoylthiophen-2-yl)ethyl)-4-(methylsulfonyl)-1-((4-phenoxybenzoyl)glycyl)pyrrolidine-2-carboxamide]
> 1 | CC(C)C[C@H](NC(=O)[C@@H]1CC2(CN1C(=O)CNC(=O)CCCOc1ccccc1)OCCO2)c1cc(C(=N)N)cs1 [Compound 221, (S)-N-((S)-1-(4-carbamimidoylthiophen-2-yl)-3-methylbutyl)-7-((4-phenoxybutanoyl)glycyl)-1,4-dioxa-7-azaspiro[4.4]nonane-8-carboxamide]
> 1 | N=C(N)c1csc([C@@H](Cc2ccccc2)NC(=O)[C@@H]2CC3(CN2C(=O)CNC(=O)CCCOc2ccccc2)OCCO3)c1 [Compound 176, (S)-N-((R)-1-(4-carbamimidoylthiophen-2-yl)-2-phenylethyl)-7-((4-phenoxybutanoyl)glycyl)-1,4-dioxa-7-azaspiro[4.4]nonane-8-carboxamide]

Further lines, the compound ahead of its results:

SMILES | IC50 [µM]
C[C@@]12C[C@@H]1N(C(=O)CNC(=O)CCCOc1ccc(S(F)(F)(F)(F)F)cc1)[C@H](C(=O)NCc1cc(C(=N)N)cs1)C2 [Compound 96, (1S,3S,5S)-N-((4-carbamimidoylthiophen-2-yl)methyl)-5-methyl-2-((4-(4-(pentafluoro-λ^6-sulfanyl)phenoxy)butanoyl)glycyl)-2-azabicyclo[3.1.0]hexane-3-carboxamide] | < 0.1
N=C(N)c1csc(CNC(=O)[C@@H]2C[C@]3(CO)C[C@@H]3N2C(=O)CNC(=O)CCCOc2ccccc2)c1 [Compound 84, (1S,3S,5R)-N-((4-carbamimidoylthiophen-2-yl)methyl)-5-(hydroxymethyl)-2-((4-phenoxybutanoyl)glycyl)-2-azabicyclo[3.1.0]hexane-3-carboxamide] | 0.1 to 1
CC(C)(C)c1ccc(OCCCC(=O)NCC(=O)N2[C@H]3C[C@@]3(C)C[C@H]2C(=O)NCc2cc(C(=N)N)cs2)cc1 [Compound 87, (1S,3S,5S)-2-((4-(4-(tert-butyl)phenoxy)butanoyl)glycyl)-N-((4-carbamimidoyl-thiophen-2-yl)methyl)-5-methyl-2-azabicyclo[3.1.0]hexane-3-carboxamide] | < 0.1
COC[C@@]12C[C@@H]1N(C(=O)CNC(=O)CCCOc1ccccc1)[C@H](C(=O)NCc1cc(C(=N)N)cs1)C2 [Compound 63, (1S,3S,5R)-N-((4-carbamimidoylthiophen-2-yl)methyl)-5-(methoxymethyl)-2-((4-phenoxybutanoyl)glycyl)-2-azabicyclo[3.1.0]hexane-3-carboxamide] | < 0.1
CC(=O)O/N=C(\N)c1csc(CNC(=O)[C@@H]2C[C@]3(C)C[C@@H]3N2C(=O)CN(C[C@H](O)[C@H](O)[C@@H](O)[C@H](C)O)C(=O)OC(C)(C)C)c1 [Compound 25, tert-butyl (2-((1S,3S,5S)-3-(((4-(N-acetoxycarbamimidoyl)thiophen-2-yl)methyl)-carbamoyl)-5-methyl-2-azabicyclo[3.1.0]hexan-2-yl)-2-oxoethyl)((2S,3S,4S,5S)-2,3,4,5-tetrahydroxyhexyl)carbamate] | > 1
COC[C@H]1C[C@@H](C(=O)NCc2cc(C(=N)N)cs2)N(C(=O)CNC(=O)c2ccc(Oc3ccccc3)cc2)C1 [Compound 14, (2S,4S)-N-((4-carbamimidoylthiophen-2-yl)methyl)-4-(methoxymethyl)-1-((4-phenoxybenzoyl)glycyl)pyrrolidine-2-carboxamide hydrochloride] | < 0.1
N=C(N)c1csc(CNC(=O)[C@@H]2CC3(CC3)CN2C(=O)CNC(=O)CCCOc2ccccc2)c1 [Compound 55, (S)-N-((4-carbamimidoylthiophen-2-yl)methyl)-5-((4-phenoxybutanoyl)glycyl)-5-azaspiro[2.4]heptane-6-carboxamide] | < 0.1
C[C@@]12C[C@@H]1N(C(=O)CNC(=O)c1ccc(Oc3ccccc3)cc1)[C@H](C(=O)NCc1cc(C3=NCCN3)cs1)C2 [Compound 37, (1S,3S,5S)-N-((4-(4,5-dihydro-1H-imidazol-2-yl)thiophen-2-yl)methyl)-5-methyl-2-((4-phenoxybenzoyl)glycyl)-2-azabicyclo[3.1.0]hexane-3-carboxamide] | > 1
N=C(N)c1csc(CNC(=O)[C@@H]2C[C@@H](Oc3ccccc3)CN2C(=O)CNC(=O)CCCOc2ccccc2)c1 [Compound 69, (2S,4R)-N-((4-carbamimidoylthiophen-2-yl)methyl)-4-phenoxy-1-((4-phenoxy-butanoyl)glycyl)pyrrolidine-2-carboxamide] | < 0.1
N=C(N)c1csc(CNC(=O)[C@@H]2C=CCN2C(=O)CNC(=O)CCCOc2ccc(S(F)(F)(F)(F)F)cc2)c1 [Compound 95] | 0.1 to 1
